According to patent publication US8722626B2, “Method for controlling fibrosis and other pathological deposits in tissues comprising administering a GHRP-6 composition” (Centro de Ingenieria Genetica y Biotecnologia, priority 2006, dated 2014):

Assays:
[1] = tested on: male APP transgenic mice expressing the beta-amiloid precursor protein; test: Beta-amiloid protein deposition in brain of APP transgenic mice (Example 5); type: in vivo, mouse; set-up: SODt (oxidative stress marker) / Catalase (oxidative stress marker) / HPT (oxidative stress marker) / MDA (oxidative stress marker): unit not given here; conditions: 8 weeks; for Catalase (oxidative stress marker) / HPT (oxidative stress marker) / MDA (oxidative stress marker) / SODt (oxidative stress marker): brain tissues; for No. of deposits positive to Congo Red / No. of deposits positive to beta-amiloid / Size of amiloid plaques: brain
Experimental: This study was conducted to evaluate the influence of the long-term administration (8 weeks) of the GHRP-6 on the biochemical and morphological markers in the brain of transgenic mice expressing the beta-amiloid precursor protein, these markers also indicating the progression of the central nervous system damage. For the present study, 20-25 g in body weight male APP transgenic mice were acquired, expressing the beta-amiloid precursor protein. Animals (N=30) were randomly distributed in:
Placebo group—Physiological saline solution 0.9%.
Dosage I group—GHRP-6 at 50 μg/kg of body weight in saline solution.
Dosage II group—GRHP-6 at 100 μg/kg of body weight in saline solution.
Treatments were applied by the intraperitoneal route in 1 ml, five days a week during 8 weeks, with animals receiving 40 administrations of GHRP-6. We knew from previous exploratory pilot studies that this period of time was sufficient for improving cognitive and motor skills in animals under stress.
After 8 weeks of treatment, mice were sacrificed by anesthesia overdose, and perfused in situ with saline solution. Encephala were extracted, one encephalon was frozen in dry-ice and the other was fixed in 4% para-formaldehyde neutral. Samples were cryo-sliced at 10 μm and slices were stained with hematoxylin/eosin, Congo Red, or incubated with an antibody specific for the beta-amiloid protein. Morphometric procedures were carried out by microscopic imaging capture by a camera connected to the microscope, and the images were analyzed with the DIGIPAT software.
The number of fibrillar deposits of the beta-amiloid protein positive to Congo Red staining.
The number of foci immunoreactive to the antibody that recognizes the beta-amiloid protein.
Size of the beta-amiloid plaques in the brain, recognized at 200× and 400× magnifications (μm^2).
Brain concentration of myo-inositol as indicator of aging and brain metabolism deterioration (μmol/g of tissue).

[2] = tested on: pulmonary fibrosis in rats (Bleomycin); test: Control of pulmonary fibrosis induced by Bleomycin in rats (Example 4); type: in vivo, rat; conditions: 4 weeks; for Grade 0 pulmonary fibrosis (no evidences of fibrosis), animals per group / Grade 1 pulmonary fibrosis (predominantly vascular), animals per group / Grade 2 pulmonary fibrosis (additional peri-bronchial compromise), animals per group / Grade 3 pulmonary fibrosis (also interalveolar septum), animals per group: N = 15; for OH—P content (hydroxiproline) in lungs: end of treatment, 15 fragments per group
Experimental: In this case, the process as induced by sustained administration of the anti-neoplasic agent Bleomycin (Ble) at a 2.5 U/kg dosage twice a week during 4 weeks. […] This point forward, the administration of Ble was suspended and treatment with the pharmaceutical composition containing the GHRP-6 was started. The treatment was applied once daily, at 100 and 400 μg/kg in a 1 ml volume by intraperitoneal route during 4 weeks. […] When treatments concluded, the animals were sacrificed by anesthesia overdose and lungs and blood serum were collected. Tissue fragments were fixed in formalin neutral and processed by hematoxylin/eosin staining, or by Masson's trichromic staining, to evaluate the general damage and the severity of fibrotic indurations. Other fragments of lung tissues were stored at −70° C. until processing to determine the content of hydroxiproline by acid hydrolysis in 1N HCl, and also the […] levels of redox metabolism markers. Biochemical determinations were carried out by calculating the total protein content by the Bradford's method. Histological evaluation of the fibro-proliferative reaction in lungs includes the process of peri-vascular, peri-bronchial and septal fibrosis. The overall grade of pulmonary fibrosis was established according to the extension and intensity of the process in these three segments, to determine the percent of animals affected or unaffected at the end of the treatment with the GHRP-6. The numbers of animals in every group with fibrotic lungs according to the severity of fibrosis are:
Grade 0—No evidences of fibrosis or only thin and diffuse fiber or areolar material foci present, without respiratory compromise.
Grade 1—Fibrosis predominantly vascular in more than 75% of arterioles and capillaries.
Grade 2—Fibrosis predominantly vascular in more than 75% of arterioles and capillaries, with additional peri-bronchial compromise.
Grade 3—Fibrosis predominantly vascular in more than 75% of arterioles and capillaries, with additional peri-bronchial compromise. Fibrotic material is also detected in the interalveolar septum.

[3] = Dosage I: 50 μg/kg i.p. five days a week
[4] = Dosage II: 100 μg/kg i.p. five days a week
[5] = Dosage I: 100 μg/kg i.p. once daily
[6] = Dosage II: 400 μg/kg i.p. once daily

Substance: GHRP-6
- Myo-inositol concentration in the brain. [1, 3]: 49.35 ± 10 μmol/g of tissue
- Myo-inositol concentration in the brain. [1, 4]: 27.45 ± 8.61 μmol/g of tissue
- Catalase (oxidative stress marker) ([1]; Dosage I: 50 μg/kg i.p.): 81.6 ± 15.25
- HPT (oxidative stress marker) ([1]; Dosage I: 50 μg/kg i.p.): 54.3 ± 11.87
- MDA (oxidative stress marker) ([1]; Dosage I: 50 μg/kg i.p.): 0.77 ± 1.56
- SODt (oxidative stress marker) ([1]; Dosage I: 50 μg/kg i.p.): 611.17 ± 44.79
- Catalase (oxidative stress marker) ([1]; Dosage II: 100 μg/kg i.p.): 60.18 ± 13.67
- HPT (oxidative stress marker) ([1]; Dosage II: 100 μg/kg i.p.): 21.25 ± 5.44
- MDA (oxidative stress marker) ([1]; Dosage II: 100 μg/kg i.p.): 0.4 ± 0.02
- SODt (oxidative stress marker) ([1]; Dosage II: 100 μg/kg i.p.): 863.22 ± 50.3
- No. of deposits positive to Congo Red [1, 3]: 21.78 ± 6.57
- No. of deposits positive to beta-amiloid [1, 3]: 15.11 ± 3.27
- Size of amiloid plaques [1, 3]: 15.51 ± 6.44 μm^2
- No. of deposits positive to Congo Red [1, 4]: 14.52 ± 4.18
- No. of deposits positive to beta-amiloid [1, 4]: 13.58 ± 4.61
- Size of amiloid plaques [1, 4]: 10.88 ± 4.1 μm^2
- Grade 0 pulmonary fibrosis (no evidences of fibrosis), animals per group [2, 5]: 3
- Grade 1 pulmonary fibrosis (predominantly vascular), animals per group [2, 5]: 10
- Grade 2 pulmonary fibrosis (additional peri-bronchial compromise), animals per group [2, 5]: 2
- Grade 3 pulmonary fibrosis (also interalveolar septum), animals per group [2, 5]: 0
- OH—P content (hydroxiproline) in lungs [2, 5]: 91.24 ± 16.84 μg/g of total proteins
- Grade 0 pulmonary fibrosis (no evidences of fibrosis), animals per group [2, 6]: 8
- Grade 1 pulmonary fibrosis (predominantly vascular), animals per group [2, 6]: 7
- Grade 2 pulmonary fibrosis (additional peri-bronchial compromise), animals per group [2, 6]: 0
- Grade 3 pulmonary fibrosis (also interalveolar septum), animals per group [2, 6]: 0
- OH—P content (hydroxiproline) in lungs [2, 6]: 12.75 ± 3.61 μg/g of total proteins
- Animals classified as grade 0 (pulmonary fibrosis) ([2]; dosage II: 400 μg/kg i.p. once daily): > 50%
